Experimental data reported in patent US20080242663A1, “NOVEL PYRIMIDINE DERIVATIVES 698” (ASTRAZENECA AB, priority 2007, published 2008).

Biological target: T1, recombinant EphB4 (Homo sapiens, UniProt P54760)
T1 construct: amino acids 563-987; Swiss-Prot Acc; No. P54760; purchased ProQinase GmbH 0178-0000-3
T1 sequence (P54760 563-987): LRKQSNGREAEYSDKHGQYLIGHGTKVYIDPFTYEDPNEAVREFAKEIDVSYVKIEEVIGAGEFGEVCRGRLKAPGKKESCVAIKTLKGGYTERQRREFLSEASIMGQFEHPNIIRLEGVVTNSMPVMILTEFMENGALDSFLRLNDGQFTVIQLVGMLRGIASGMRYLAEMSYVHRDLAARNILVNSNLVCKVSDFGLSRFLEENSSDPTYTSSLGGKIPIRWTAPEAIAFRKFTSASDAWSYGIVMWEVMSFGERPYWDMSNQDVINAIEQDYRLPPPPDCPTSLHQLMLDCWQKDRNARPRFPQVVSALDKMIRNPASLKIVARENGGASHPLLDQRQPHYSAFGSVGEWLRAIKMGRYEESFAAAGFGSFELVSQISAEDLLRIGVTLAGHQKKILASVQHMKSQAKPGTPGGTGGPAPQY
Assay: In vitro EphB4 enzyme assay (Alphascreen)
Format: biochemical
Description: This assay detects inhibitors of EphB4-mediated phosphorylation of a polypeptide substrate using Alphascreen™ luminescence detection technology. Briefly, recombinant EphB4 was incubated with a biotinylated-polypeptide substrate (biotin-poly-GAT) in presence of magnesium-ATP. The reaction was stopped by addition of EDTA, together with streptavidin-coated donor beads which bind the biotin-substrate containing any phosphorylated tyrosine residues. Anti-phosphotyrosine antibodies present on acceptor beads bind to phosphorylated substrate, thus bringing the donor & acceptor beads into close proximity. Subsequent excitation of the donor beads at 680 nm generated singlet oxygen species that interact with a chemiluminescer on the acceptor beads, leading to light emission at 520-620 nm. The signal intensity is directly proportional to the level of substrate phosphorylation and thus inhibition is measured by a decrease in signal.
Assay plates were then incubated at room temperature for 1 hr. […] The plates were sealed under natural lighting conditions, wrapped in aluminium foil and incubated in the dark for a further 20 hrs.
The resulting assay signal was determined on the Perkin Elmer EnVision plate reader. The minimum value was subtracted from all values, and the signal plotted against compound concentration to generate IC50 data.

SMILES	IC50 [nM]
CN(c1ccnc(Nc2cc(N3CCOCC3)cc(N3CCSCC3)c2)n1)c1ccc(F)c(Cl)c1F [Example 1, N′-(3-chloro-2,4-difluoro-phenyl)-N′-methyl-N-(3-morpholin-4-yl-5-thiomorpholin-4-yl-phenyl)pyrimidine-2,4-diamine]	763
CN(c1ccnc(Nc2cc(N3CCOCC3)cc(N3CCOCC3)c2)n1)c1ccc(F)c(Cl)c1F [Example 2.1, N′-(3-chloro-2,4-difluoro-phenyl)-N-(3,5-dimorpholin-4-ylphenyl)-N′-methyl-pyrimidine-2,4-diamine]	829
CN(c1ccnc(Nc2cccc(N3CCOCC3)c2)n1)c1ccc(F)c(Cl)c1F [Example 2.3, N′-(3-chloro-2,4-difluoro-phenyl)-N′-methyl-N-(3-morpholin-4-ylphenyl)pyrimidine-2,4-diamine]	304
COc1cc(Nc2nccc(N(C)c3ccc(F)c(Cl)c3F)n2)cc(N2CCOCC2)c1 [Example 2.4, N′-(3-chloro-2,4-difluoro-phenyl)-N-(3-methoxy-5-morpholin-4-yl-phenyl)-N′-methyl-pyrimidine-2,4-diamine]	348
CN(c1ccnc(Nc2cc(C#N)cc(N3CCOCC3)c2)n1)c1ccc(F)c(Cl)c1F [Example 2.5, 3-[[4-[(3-chloro-2,4-difluoro-phenyl)-methyl-amino]pyrimidin-2-yl]amino]-5-morpholin-4-yl-benzonitrile]	937
CN(c1ccnc(Nc2cc(N3CCOCC3)cc(S(C)(=O)=O)c2)n1)c1ccc(F)c(Cl)c1F [Example 2.6, N′-(3-chloro-2,4-difluoro-phenyl)-N′-methyl-N-(3-methylsulfonyl-5-morpholin-4-yl-phenyl) pyrimidine-2,4-diamine]	447
CN(c1ccnc(Nc2cc(CO)cc(N3CCOCC3)c2)n1)c1ccc(F)c(Cl)c1F [Example 2.7, [3-[[4-[(3-chloro-2,4-difluoro-phenyl)-methyl-amino]pyrimidin-2-yl]amino]-5-morpholin-4-yl-phenyl] methanol]	117
CN(C)C(=O)c1cc(Nc2nccc(N(C)c3ccc(F)c(Cl)c3F)n2)cc(N2CCOCC2)c1 [Example 2.8, 3-[[4-[(3-chloro-2,4-difluoro-phenyl)-methyl-amino]pyrimidin-2-yl]amino]-N,N-dimethyl-5-morpholin-4-yl-benzamide]	335
COCCOc1cc(Nc2nccc(N(C)c3ccc(F)c(Cl)c3F)n2)cc(N2CCOCC2)c1 [Example 2.9, N′-(3-chloro-2,4-difluoro-phenyl)-N-[3-(2-methoxyethoxy)-5-morpholin-4-yl-phenyl]-N′-methyl-pyrimidine-2,4-diamine]	781
CN(c1ccnc(Nc2cc(N3CCC(O)CC3)cc(S(C)(=O)=O)c2)n1)c1ccc(F)c(Cl)c1F [Example 2.11, 1-[3-[[4-[(3-chloro-2,4-difluoro-phenyl)-methyl-amino]pyrimidin-2-yl]amino]-5-methylsulfonyl-phenyl] piperidin-4-ol]	106
CC(=O)N1CCN(c2cc(Nc3nccc(N(C)c4ccc(F)c(Cl)c4F)n3)cc(S(C)(=O)=O)c2)CC1 [Example 2.12, 1-[4-[3-[[4-[(3-chloro-2,4-difluoro-phenyl)-methyl-amino]pyrimidin-2-yl]amino]-5-methylsulfonyl-phenyl]piperazin-1-yl] ethanone]	189
CN(c1ccnc(Nc2cc(N3CCN(CCO)CC3)cc(S(C)(=O)=O)c2)n1)c1ccc(F)c(Cl)c1F [Example 2.13, 2-[4-[3-[[4-[(3-chloro-2,4-difluoro-phenyl)-methyl-amino]pyrimidin-2-yl]amino]-5-methylsulfonyl-phenyl]piperazin-1-yl] ethanol]	69.7
COCc1cc(Nc2nccc(N(C)c3ccc(F)c(Cl)c3F)n2)cc(N2CCOCC2)c1 [Example 2.14, N′-(3-chloro-2,4-difluoro-phenyl)-N-[3-(methoxymethyl)-5-morpholin-4-yl-phenyl]-N′-methyl-pyrimidine-2,4-diamine]	653
CN(c1ccnc(Nc2cc(CN3CCOCC3)cc(N3CCOCC3)c2)n1)c1ccc(F)c(Cl)c1F [Example 2.16, N′-(3-chloro-2,4-difluoro-phenyl)-N′-methyl-N-[3-morpholin-4-yl-5-(morpholin-4-ylmethyl)phenyl]py-rimidine-2,4-diamine]	307
CN1CCN(Cc2cc(Nc3nccc(N(C)c4ccc(F)c(Cl)c4F)n3)cc(N3CCOCC3)c2)CC1 [Example 2.18, N′-(3-chloro-2,4-difluoro-phenyl)-N′-methyl-N-[3-[(4-methylpiperazin-1-yl)methyl]-5-morpholin-4-yl-phenyl] pyrimidine-2,4-diamine]	46.1
CN(c1ccnc(Nc2cc(CN3CCC(O)CC3)cc(N3CCOCC3)c2)n1)c1ccc(F)c(Cl)c1F [Example 2.19, 1-[[3-[[4-[(3-chloro-2,4-difluoro-phenyl)-methyl-amino]pyrimidin-2-yl]amino]-5-morpholin-4-yl-phenyl]methyl]piperidin-4-ol]	59.6
CN1CCN(c2cc(Nc3nccc(N(C)c4ccc(F)c(Cl)c4F)n3)cc(S(C)(=O)=O)c2)CC1 [Example 3, N′-(3-chloro-2,4-difluoro-phenyl)-N′-methyl-N-[3-(4-methylpiperazin-1-yl)-5-methylsulfonyl-phenyl]pyrimidine-2,4-diamine]	65.1
CN1CCN(c2cc(Nc3nccc(N(C)c4ccc(F)c(Cl)c4F)n3)cc(N3CCOCC3)c2)CC1 [Example 5, N′-(3-chloro-2,4-difluoro-phenyl)-N′-methyl-N-[3-(4-methylpiperazin-1-yl)-5-morpholin-4-yl-phenyl]pyrimidine-2,4-diamine]	424

Now from value to compound:

IC50 [nM]	SMILES
75.9	Cc1ccc(CO)cc1N(C)c1ccnc(Nc2cc(N3CCOCC3)cc(N3CCC(O)CC3)c2)n1 [Example 7.8, 1-[3-[[4-[[5-(hydroxymethyl)-2-methyl-phenyl]-methyl-amino]pyrimidin-2-yl]amino]-5-morpholin-4-yl-phenyl]piperidin-4-ol]
151	Cc1ccc(CO)cc1N(C)c1ccnc(Nc2cc(N3CCOCC3)cc(N3CC[C@H](O)C3)c2)n1 [Example 7.9, (3S)-1-[3-[[4-[[5-(hydroxymethyl)-2-methyl-phenyl]-methyl-amino]pyrimidin-2-yl]amino]-5-morpholin-4-yl-phenyl]pyrrolidin-3-ol]
13.5	Cc1ccc(CO)cc1N(C)c1ccnc(Nc2cc(N3CCOCC3)cc(N3CC[C@@H](O)C3)c2)n1 [Example 7.10, (3R)-1-[3-[[4-[[5-(hydroxymethyl)-2-methyl-phenyl]-methyl-amino]pyrimidin-2-yl]amino]-5-morpholin-4-yl-phenyl]pyrrolidin-3-ol]
60.1	Cc1ccc(CO)cc1N(C)c1ccnc(Nc2cc(C(=O)N(C)C)cc(N3CCOCC3)c2)n1 [Example 7.11, 3-[[4-[[5-(hydroxymethyl)-2-methyl-phenyl]-methyl-amino]pyrimidin-2-yl]amino]-N,N-dimethyl-5-morpholin-4-yl-benzamide]
32.6	Cc1ccc(CO)cc1N(C)c1ccnc(Nc2cc(CO)cc(N3CCOCC3)c2)n1 [Example 7.13, [3-[[4-[[5-(hydroxymethyl)-2-methyl-phenyl]-methyl-amino]pyrimidin-2-yl]amino]-5-morpholin-4-yl-phenyl]methanol]
195	Cc1ccc(CO)cc1N(C)c1ccnc(Nc2cc(C#N)cc(N3CCOCC3)c2)n1 [Example 7.15, 3-[[4-[[5-(hydroxymethyl)-2-methyl-phenyl]-methyl-amino]pyrimidin-2-yl]amino]-5-morpholin-4-yl-benzonitrile]
